Values joined by “and” are separate entries in the source; they are usually repeats but may differ in a detail not shown here. Equal entries are not always repeated. Marks after values point to notes of the source that are not given here.

Assay [1] has as its system disks of whole human skin. Description: Nature of the neosynthesized epidermal lipids (thin layer chromatography of 14C-labeled lipids) in whole human skin disks. The class given is cell-based. Set-up: neosynthesis of cholesteryl sulfate, percentage of the control group: concentration or dose not given beside the values. Here is the method: (§1) The study is performed in vitro in an organotypical model of whole human skin in culture. Two techniques successively used: • measurement of the incorporation of acetate radiolabeled with carbon 14 into the neosynthesized epidermal lipids in toto; • analysis by thin layer chromatography to separate the main classes of neosynthesized radiolabeled epidermal lipids.
(§2) A fragment of human skin was collected after an abdominal plastic surgery-operation. This was performed on a person (subject I0129). Skin disks 8 mm in diameter were cut out using a sample punch.
(§3) The skin disks are placed in gondolas. The gondolas are placed in culture wells containing MCF medium, composed of MEM/M199 medium (3/4, 1/4; v/v) supplemented with penicillin (50 IU/ml), streptomycin (50 μg/ml), sodium bicarbonate (0.2%, w/v) and FCS (2%, v/v).
(§4) The test products are tested undiluted. They are placed at the center of each human skin disk, in a proportion of 10 mg/cm^2. The incubation medium for the human skin disks (MIF medium) is composed of MCF medium containing 1 μCi/ml of acetate labeled with carbon 14 (Amersham, specific activity: 57 mCi/mmol).
(§5) The lactic acid is used in topical application (10 mg/cm^2).
(§6) The human skin disks are incubated in the presence of the test products and the reference products for 18 hours at 37° C. in a humid atmosphere containing 5% CO2.
(§7) Each experimental condition is performed in quadruplicate.
Starting with the samples of extracted lipids, 20 μl aliquots, corresponding to 3 700 cpm, are placed on silica 60 (Merck) chromatography plates. These plates are developed in three successive solvents: • 38/2/10 chloroform/acetone/methanol (v/v/v), • 40/5/5 chloroform/acetone/methanol (v/v/v), • 36/10/3/1 chloroform/ethyl acetate/ether/methanol (v/v/v/v).
This system makes it possible to separate the cholesteryl sulfate, the cerebrosides, the ceramides, the cholesterol and the tri-+diglycerides. The most polar lipids, referred to hereinbelow as “polar lipids”, remain on the base line.
The silica plates are then placed in exposure with films for autoradiography for 15 days (Amersham, Hyperfilm beta max).
The position of the various classes of lipids—polar lipids, cholesteryl sulfate, cerebrosides, ceramides 1 and 2, cholesterol and tri-+diglycerides—is determined using suitable standards.
The results are expressed as percentages of the radioactivity of the total lipids neosynthesized and deposited on the TLC.

The test system of assay [2] is disks of whole human skin. Description: Neosynthesis of the total epidermal lipids (14C-acetate incorporation) in organotypical model of whole human skin in culture. The class given is cell-based. The note with it: incubation 18 hours. Here is the method: as §1, §2, §3, §4, §5, §6, §7
At the end of the incubation, the human skin disks are rinsed thoroughly with PBS buffer. The epidermis of each skin disk is dissociated from the dermis by means of a controlled heat shock (MilliQ water, 2 min, 62° C.) The epidermises thus dissociated are digested with trypsin (ICN, 1%, w/v) overnight at 37° C. The cell dissociation is facilitated by the action of ultrasound. […]
The radioactivity of each sample, corresponding to the amount of acetate incorporated into the neosynthesized lipids, is measured by liquid scintillation. […]

The mark [3] stands for this setting: percentage of the radiolabeled total lipids applied onto the TLC, mean of 4 disks, 18 hours.
Setting [4] is: percentage of the radiolabeled total lipids applied onto the TLC, single disks, 18 hours.

As for “EGF: epidermal growth factor obtained from R&D Systems, reference product tested at 10 ng/ml”, in assay [1] (18 hours), the “neosynthesis of ceramide 1, percentage of the control group” value worked out at 120%; the “neosynthesis of ceramide 2, percentage of the control group” value was 155%; the “neosynthesis of cerebrosides, percentage of the control group” value stood at 125%; the “neosynthesis of cholesterol, percentage of the control group” value was 128%. In assay [1] (18 hours), the “neosynthesis of cholesteryl sulfate, percentage of the control group” value is 54% and the “neosynthesis of polar lipids, percentage of the control group” value was determined as 119%. Also, in assay [1] (setting [3]), the “neosynthesis of ceramide 1, mean” value was 2.72%; the “neosynthesis of ceramide 2, mean” value is 3.00* %; the “neosynthesis of cerebrosides, mean” value stood at 3.87%; the “neosynthesis of cholesteryl sulfate, mean” value is 3.00* %. Besides, in assay [1] (setting [3]), the “neosynthesis of polar lipids, mean” value was 38.23% and the “neosynthesis of tri- + diglycerides, mean” value is recorded as 45.10%. In assay [1] (setting [4]), the “neosynthesis of ceramide 1, individual skin disk” value was 2.02% and 1.41% and 3.41% and 4.02%; the “neosynthesis of ceramide 2, individual skin disk” value is 3.81% and 2.38% and 2.74% and 3.05%; the “neosynthesis of cerebrosides, individual skin disk” value is 2.87% and 3.82% and 4.77% and 4.02%; the “neosynthesis of cholesterol, individual skin disk” value is 7.07% and 9.46% and 7.86% and 9.99%. Besides, in assay [1] (setting [4]), the “neosynthesis of cholesteryl sulfate, individual skin disk” value is 2.31% and 3.69% and 3.44% and 2.57%; the “neosynthesis of polar lipids, individual skin disk” value is 57.27% and 34.42% and 27.69% and 33.53%; the “neosynthesis of tri- + diglycerides, individual skin disk” value was 42.67% and 44.82% and 50.08% and 42.83%. Moreover, in assay [1] (versus control), the “increase of the neosynthesis of ceramide 2” value is reported as 55% and the “reduction of the neosynthesis of cholesteryl sulfate” value is 46%. The “neosynthesis of the total epidermal lipids, percentage of the control group” value in assay [2] (topical 10 mg/cm2, EGF 10 ng/ml) was 122%. The “neosynthesis of the total epidermal lipids, mean” value in assay [2] (mean of 4 disks, topical 10 mg/cm2, EGF 10 ng/ml) is on record as 4080.02 cpm/mg of epidermis. Besides, in assay [2] (single disks of quadruplicate, compositions and lactic acid undiluted 10 mg/cm2 topical, EGF 10 ng/ml in medium), the “neosynthesis of the total epidermal lipids, individual skin disk” value is 3104.63 cpm/mg of epidermis and 5043.66 cpm/mg of epidermis and 3606.76 cpm/mg of epidermis and 4565.02 cpm/mg of epidermis.

These data come from US8147883B1, “Use of a plant oil product as an agent for increasing the synthesis of skin lipids” (Laboratoires Expanscience, priority 1999, dated 2012).
